# Test results from patent publication US9340523B2, “Certain dipeptidyl peptidase inhibitors” (FOCHON PHARMA, INC., priority 2009, dated 2016).
# Molecular target: Recombinant human DPP-IV (Homo sapiens, UniProt P27487)
# Assay: DPP-IV assay in vitro (H-Ala-Pro-AFC fluorescence)
# Type: biochemical
# Details: recombinant human DPP-IV 7.8 ng/ml, 30 min pre-incubation, H-Ala-Pro-AFC 50 μM
# Protocol: DPP-IV Assay Solutions of test compounds in varying concentrations (10^−5 mol/L, 10^−6 mol/L, 10^−7 mol/L, 10^−8 mol/L, 10^−9 mol/L, 10^−10 mol/L, 10^−11 mol/L, and 10^−12 mol/L) were prepared in dimethyl sulfoxide (DMSO) and then diluted into assay buffer comprising: 10 mM Tris-HCl pH 8.0, 0.2 M NaCl, and 0.1% BSA. Recombinant human DPP-IV (7.8 ng/ml final concentration) was added to the dilutions and pre-incubated for 30 mins at room temperature before the reaction was initiated with H-Ala-Pro-AFC (50 μM final concentration). The total volume of the reaction mixture was 100 μl.
# The fluorescence of the mixture was measured after 30 minutes (excitation at 405 nm; emission at 535 nm). Inhibition constants (IC50) were calculated by GraphPad Prism.
# Recombinant human DPP-IV, sequence (P27487 whole entry): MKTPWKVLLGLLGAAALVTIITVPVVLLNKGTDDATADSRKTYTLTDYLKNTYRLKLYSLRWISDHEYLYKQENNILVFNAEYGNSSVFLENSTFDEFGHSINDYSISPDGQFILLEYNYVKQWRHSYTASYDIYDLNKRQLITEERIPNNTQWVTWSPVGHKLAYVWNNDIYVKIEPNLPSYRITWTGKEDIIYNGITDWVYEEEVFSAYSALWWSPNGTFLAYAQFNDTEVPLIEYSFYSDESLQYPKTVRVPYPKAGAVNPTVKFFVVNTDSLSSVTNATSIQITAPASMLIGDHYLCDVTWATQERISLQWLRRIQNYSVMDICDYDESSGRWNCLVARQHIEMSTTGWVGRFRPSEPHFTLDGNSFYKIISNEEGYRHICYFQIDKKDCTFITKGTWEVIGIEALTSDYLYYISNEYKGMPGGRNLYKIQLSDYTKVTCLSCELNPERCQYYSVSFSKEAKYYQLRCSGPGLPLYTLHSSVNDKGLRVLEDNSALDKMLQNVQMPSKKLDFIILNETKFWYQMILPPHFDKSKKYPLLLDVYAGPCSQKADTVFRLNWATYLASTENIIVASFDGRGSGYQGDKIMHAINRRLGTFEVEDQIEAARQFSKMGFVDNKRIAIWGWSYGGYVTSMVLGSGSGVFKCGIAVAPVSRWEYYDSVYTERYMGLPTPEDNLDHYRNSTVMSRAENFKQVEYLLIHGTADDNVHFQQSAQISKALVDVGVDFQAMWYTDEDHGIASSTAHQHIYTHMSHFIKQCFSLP
row,Structure (SMILES),IC50 [nM]
1,"Cc1nnc(N2CCC[C@@H](N)C2)n(Cc2ccccc2C#N)c1=O [Example 1, (R)-2-((3-(3-aminopiperidin-1-yl)-6-methyl-5-oxo-1,2,4-triazin-4(5H)-yl)methyl)benzonitrile]",22
2,"Cc1nnc(N2CCC[C@@H](N)C2)n(Cc2cc(F)ccc2Br)c1=O [Example 2, (R)-3-(3-aminopiperidin-1-yl)-4-(2-bromo-5-fluorobenzyl)-6-methyl-1,2,4-triazin-5(4H)-one]",242
3,"Cc1nnc(N2CCC[C@@H](N)C2)n(Cc2cc(F)ccc2Cl)c1=O [Example 4, (R)-3-(3-aminopiperidin-1-yl)-4-(2-chloro-5-fluorobenzyl)-6-methyl-1,2,4-triazin-5(4H)-one]",640
